In ChEMBL document CHEMBL1201862, “PubChem BioAssay data set” (2004):
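All cell lines were grown in 96-well plates and treated with compound for 48 hours. GI50 marks 50% less growth.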 Calls of active or inactive are those of the source. Cut-off read from the data, not from the text of the source: active = GI50 up to about 1.1 µM and inactive = higher.

Assays:
Assay in all cases: growth of human tumour cells (NCI), 48 h
SK-MEL-28 = test system: SK-MEL-28
CCRF-CEM = test system: CCRF-CEM
DU-145 = test system: DU-145
Malme-3M = test system: Malme-3M
A549 = test system: A549
SK-OV-3 = test system: SK-OV-3
TK-10 = test system: TK-10
KM12 = test system: KM12
HL-60 = test system: HL-60
BT-549 = test system: BT-549
SNB-75 = test system: SNB-75
SF-295 = test system: SF-295
A498 = test system: A498
786-0 = test system: 786-0
ACHN = test system: ACHN
T47D = test system: T47D
UACC-257 = test system: UACC-257
SF-539 = test system: SF-539
U-251 = test system: U-251
NCI-H522 = test system: NCI-H522
SN12C = test system: SN12C
NCI-H23 = test system: NCI-H23
HCC 2998 = test system: HCC 2998
SW-620 = test system: SW-620
SNB-19 = test system: SNB-19
MOLT-4 = test system: MOLT-4
HOP-92 = test system: HOP-92
RXF 393 = test system: RXF 393
HOP-62 = test system: HOP-62
HT-29 = test system: HT-29
LOX IMVI = test system: LOX IMVI
PC-3 = test system: PC-3
NCI/ADR-RES = test system: NCI/ADR-RES
MDA-MB-435 = test system: MDA-MB-435
NCI-H460 = test system: NCI-H460
OVCAR-8 = test system: OVCAR-8
SK-MEL-5 = test system: SK-MEL-5
IGROV-1 = test system: IGROV-1
OVCAR-4 = test system: OVCAR-4
MDA-N = test system: MDA-N
MDA-MB-231 = test system: MDA-MB-231
UACC-62 = test system: UACC-62
NCI-H226 = test system: NCI-H226
SK-MEL-2 = test system: SK-MEL-2
OVCAR-3 = test system: OVCAR-3
OVCAR-5 = test system: OVCAR-5
CAKI-1 = test system: CAKI-1
SR = test system: SR
COLO 205 = test system: COLO 205
MCF7 = test system: MCF7
SF-268 = test system: SF-268
HCT-15 = test system: HCT-15
UO-31 = test system: UO-31
HCT-116 = test system: HCT-116
Hs-578T = test system: Hs-578T
K562 = test system: K562
RPMI-8226 = test system: RPMI-8226
EKVX = test system: EKVX
M14 = test system: M14

Measured: GI50

COc1ccc2c(c1)CCCc1c-2nc2ccccc2c1N
12.5 µM: HCT-15
inactive: SK-MEL-28 10.8 µM | CCRF-CEM 5.24 µM | DU-145 13.4 µM | Malme-3M 14.1 µM | A549 12.9 µM | SK-OV-3 10.4 µM | TK-10 10.7 µM | KM12 14 µM | HL-60 13.9 µM | BT-549 16.2 µM | SNB-75 10.7 µM | SF-295 11.1 µM | A498 8.24 µM | 786-0 6.11 µM | ACHN 13.6 µM | T47D 12.4 µM | UACC-257 2.45 µM | SF-539 12.4 µM | U-251 12.7 µM | NCI-H522 13.6 µM | SN12C 4.38 µM | NCI-H23 15.4 µM | HCC 2998 1.87 µM | SW-620 10.7 µM | SNB-19 15.9 µM | MOLT-4 8.59 µM | HOP-92 5.73 µM | RXF 393 4.72 µM | HOP-62 1.52 µM | HT-29 3.3 µM | LOX IMVI 8.57 µM | PC-3 10.3 µM | NCI/ADR-RES 12.9 µM | MDA-MB-435 12 µM | NCI-H460 4.44 µM | OVCAR-8 12.9 µM | SK-MEL-5 3.72 µM | IGROV-1 12.4 µM | OVCAR-4 12.6 µM | MDA-N 10.3 µM | MDA-MB-231 5.7 µM | UACC-62 12.3 µM | NCI-H226 13.8 µM | SK-MEL-2 15.7 µM | OVCAR-3 12.9 µM | OVCAR-5 10.2 µM | CAKI-1 9.02 µM | SR 2.57 µM | COLO 205 1.69 µM | MCF7 11.2 µM | SF-268 15.3 µM | UO-31 5.35 µM | HCT-116 5.81 µM | Hs-578T 17.8 µM | K562 5.14 µM | RPMI-8226 5.87 µM | EKVX 6.28 µM | M14 9.1 µM

COC(=O)c1cc2c(cc1CC(Cc1ccc3c(c1)CCCC3)C(=O)OC)CCCC2 (configuration not stated)
35.7 µM: HCT-15
inactive: SK-MEL-28 86.1 µM | CCRF-CEM 29.7 µM | DU-145 > 100 µM | Malme-3M 33.6 µM | A549 37.7 µM | SK-OV-3 49.5 µM | TK-10 95.3 µM | KM12 50.5 µM | HL-60 7.45 µM | BT-549 > 100 µM | SNB-75 64.4 µM | SF-295 76 µM | A498 > 100 µM | 786-0 45.4 µM | ACHN 49.9 µM | T47D 39.8 µM | UACC-257 16.4 µM | SF-539 32.7 µM | U-251 41.7 µM | NCI-H522 54.5 µM | SN12C > 100 µM | NCI-H23 54.1 µM | HCC 2998 20.8 µM | SW-620 80.9 µM | SNB-19 > 100 µM | MOLT-4 42.1 µM | HOP-92 44.9 µM | RXF 393 25.8 µM | HOP-62 > 100 µM | HT-29 33.7 µM | LOX IMVI 28.2 µM | PC-3 21.7 µM | NCI/ADR-RES 41.3 µM | MDA-MB-435 40.6 µM | NCI-H460 34 µM | OVCAR-8 84.7 µM | SK-MEL-5 24.5 µM | IGROV-1 > 100 µM | OVCAR-4 29.9 µM | MDA-N 65.3 µM | MDA-MB-231 68.4 µM | UACC-62 > 100 µM | NCI-H226 59.3 µM | SK-MEL-2 > 100 µM | OVCAR-3 44.6 µM | OVCAR-5 68.4 µM | CAKI-1 > 100 µM | SR 97.7 µM | COLO 205 33.2 µM | MCF7 40.1 µM | SF-268 29 µM | UO-31 > 100 µM | HCT-116 36 µM | Hs-578T 93.3 µM | K562 40.1 µM | RPMI-8226 20 µM | M14 88.3 µM
